Read-outs that look alike come from different tables or passages of the source.
Legend:
Type in all cases: in vivo
[1] = test system: red spider mites, Tetranychus urticae; experiment: Potter tower spray on red spider mites, knockdown and mortality; conditions: Spider mites
Text: (§1) The compounds were screened for insecticidal efficacy against aphids, Myzus persicae, Cabbage moth, Mamestra brassicae, diamond black moths, Plutella xylostella, red spider mites, Tetranychus urticae, whitefly, Trialeurodes vaporariorum, in terms of knockdown and mortality.
(§2) Myzus persicae, Cabbage moth, Mamestra brassicae, diamond back moths, Plutella xylostella, red spider mites, Tetranychus urticae, whitefly, Trialeurodes vaporariorum, were obtained from specified laboratory cultures. Mixed sex and age aphids and mites, moth larvae and whitefly scale infested leaves were used in the experiments. Environmental conditions were closely monitored and recorded and were within the optimal range of the target species.
(§3) The compounds were screened at a range of five concentrations, diluted in DMSO. Some of the compounds were screened against aphids, whitefly and red spider mites and other compounds were screened against cabbage moth, and diamond black moths. A carrier only and an untreated control will also be conducted. Treatments were applied directly onto the insects within Petri dishes, using a potter tower.
(§4) Twenty mites and ten aphids, scales and moth larvae were placed within a Petri dish, lined with a suitable leaf disc on a damp cotton wool pad. Scales were already on leaves. The Petri dishes were then sprayed using a potter tower. The number of knocked down and anthropods were assessed at 24 and 48 hours post treatment. Five replicates were be performed for each treatment, for each species.

aphids, Myzus persicae = experiment: Potter tower spray on aphids, knockdown and mortality; conditions: Aphids; for pest or weed control at 0.003125 % strength / pest or weed control at 0.00625 % strength / pest or weed control at 0.0125 % strength / pest or weed control at 0.025 % strength / pest or weed control at 0.05 % strength: Myzus persicae, read-out: Average of % corrected affected; for pest or weed control at 0.003125 % strength: 0.003125 % w/v
Text: as §1, §2, §3, §4
(§5) For Tables 2, 4, 5 and 6, the compounds were diluted in DMSO containing 1% v/v Tween 20™. For Tables 2, 4, 5 and 6, the caterpillars were a mixture of Mamestra brassicae and Lacanobia oleracea.

[2] = test system: caterpillars, a mixture of Mamestra brassicae and Lacanobia oleracea; experiment: Potter tower spray on caterpillars, knockdown and mortality; conditions: for pest or weed control at 0.003125 % strength / pest or weed control at 0.00625 % strength / pest or weed control at 0.0125 % strength / pest or weed control at 0.025 % strength / pest or weed control at 0.05 % strength / Average of % corrected affected: Caterpillars; for pest or weed control at 0.003125 % strength / pest or weed control at 0.00625 % strength / pest or weed control at 0.0125 % strength / pest or weed control at 0.025 % strength / pest or weed control at 0.05 % strength: read-out: Average of % corrected affected; for pest or weed control at 0.00625 % strength: 0.00625 % w/v; for pest or weed control at 0.05 % strength: 0.05 % w/v
Text: as §2, §3, §4, §5

[3] = 24 h, 0.003125 % w/v, 24 hours post application
[4] = 24 h, 24 hours post application
[5] = 24 h, 0.0125 % w/v, 24 hours post application
[6] = 24 h, 0.025 % w/v, 24 hours post application
[7] = 48 h, 0.003125 % w/v, 48 hours post application
[8] = 48 h, 48 hours post application
[9] = 48 h, 0.0125 % w/v, 48 hours post application
[10] = 48 h, 0.025 % w/v, 48 hours post application
[11] = 24 h, 0.00625 % w/v, 24 hours post application
[12] = 24 h, 0.05 % w/v, 24 hours post application
[13] = 48 h, 0.05 % w/v, 48 hours post application
[14] = 0.0125 % w/v, 48 hours post application
[15] = 0.025 % w/v, 24 hours post application
[16] = 0.025 % w/v, 48 hours post application

O=C1C=C(N(Cc2ccc(Cl)nc2)CC(F)F)CO1 [Compound 1, 3-[(6-Chloro-3-pyridyl)methyl-(2,2-difluoroethyl)amino]-2H-furan-5-one, reference compound]
percentage control ([1]; 25 g/ha, 24 h): D (A percentage control of from 20 to 39 is indicated by the letter D) | percentage control ([1]; 25 g/ha, 48 h): D (A percentage control of from 20 to 39 is indicated by the letter D) | percentage control ([1]; 50 g/ha, 24 h): D (A percentage control of from 20 to 39 is indicated by the letter D) | percentage control ([1]; 50 g/ha, 48 h): D (A percentage control of from 20 to 39 is indicated by the letter D) | percentage control ([1]; 100 g/ha, 24 h): E (A percentage control of from 1 to 19 is indicated by the letter E) | percentage control ([1]; 100 g/ha, 48 h): D (A percentage control of from 20 to 39 is indicated by the letter D) | percentage control ([1]; 200 g/ha, 24 h): D (A percentage control of from 20 to 39 is indicated by the letter D) | percentage control ([1]; 200 g/ha, 48 h): D (A percentage control of from 20 to 39 is indicated by the letter D) | percentage control ([1]; 400 g/ha, 24 h): D (A percentage control of from 20 to 39 is indicated by the letter D) | percentage control ([1]; 400 g/ha, 48 h): C (A percentage control of from 40 to 59 is indicated by the letter C) | percentage control (aphids, Myzus persicae; 25 g/ha, 24 h): E (A percentage control of from 1 to 19 is indicated by the letter E) | percentage control (aphids, Myzus persicae; 25 g/ha, 48 h): C (A percentage control of from 40 to 59 is indicated by the letter C) | percentage control (aphids, Myzus persicae; 50 g/ha, 24 h): D (A percentage control of from 20 to 39 is indicated by the letter D) | percentage control (aphids, Myzus persicae; 50 g/ha, 48 h): A (A percentage control of from 80 to 100 is indicated by the letter A) | percentage control (aphids, Myzus persicae; 100 g/ha, 24 h): D (A percentage control of from 20 to 39 is indicated by the letter D) | percentage control (aphids, Myzus persicae; 100 g/ha, 48 h): A (A percentage control of from 80 to 100 is indicated by the letter A) | percentage control (aphids, Myzus persicae; 200 g/ha, 24 h): C (A percentage control of from 40 to 59 is indicated by the letter C) | percentage control (aphids, Myzus persicae; 200 g/ha, 48 h): A (A percentage control of from 80 to 100 is indicated by the letter A) | percentage control (aphids, Myzus persicae; 400 g/ha, 24 h): B (A percentage control of from 60 to 79 is indicated by the letter B) | percentage control (aphids, Myzus persicae; 400 g/ha, 48 h): A (A percentage control of from 80 to 100 is indicated by the letter A)

O=C(Nc1ccc(-c2cccnc2)oc1=O)C1CC1 [Compound 25, N-[2-Oxo-6-(3-pyridyl)pyran-3-yl]cyclopropanecarboxamide, reference compound]
pest or weed control at 0.003125 % strength [2, 3]: 0% | pest or weed control at 0.00625 % strength [2, 4]: 1 to 19% | pest or weed control at 0.0125 % strength [2, 5]: 1 to 19% | pest or weed control at 0.025 % strength [2, 6]: 1 to 19% | pest or weed control at 0.05 % strength [2, 4]: 1 to 19% | pest or weed control at 0.003125 % strength [2, 7]: 1 to 19% | pest or weed control at 0.00625 % strength [2, 8]: 1 to 19% | pest or weed control at 0.0125 % strength [2, 9]: 1 to 19% | pest or weed control at 0.025 % strength [2, 10]: 20 to 39% | pest or weed control at 0.05 % strength [2, 8]: 1 to 19% | pest or weed control at 0.003125 % strength (aphids, Myzus persicae; [4]): 1 to 19% | pest or weed control at 0.00625 % strength (aphids, Myzus persicae; [11]): 20 to 39% | pest or weed control at 0.0125 % strength (aphids, Myzus persicae; [5]): 20 to 39% | pest or weed control at 0.025 % strength (aphids, Myzus persicae; [6]): 40 to 59% | pest or weed control at 0.05 % strength (aphids, Myzus persicae; [12]): 1 to 19% | pest or weed control at 0.003125 % strength (aphids, Myzus persicae; [8]): 1 to 19% | pest or weed control at 0.00625 % strength (aphids, Myzus persicae; 48 h, 0.00625 % w/v, 48 hours post application): 20 to 39% | pest or weed control at 0.0125 % strength (aphids, Myzus persicae; [9]): 20 to 39% | pest or weed control at 0.025 % strength (aphids, Myzus persicae; [10]): 60 to 79% | pest or weed control at 0.05 % strength (aphids, Myzus persicae; [13]): 40 to 59%

O=C(Nc1ccc(-c2cncnc2)oc1=O)C1CC1 [Compound 26, N-[2-Oxo-6-(5-pyrimidyl)pyran-3-yl]cyclopropanecarboxamide]
control against caterpillars compared with reference compound 25 ([2]; 0.05%): greater control | pest or weed control at 0.003125 % strength [2, 3]: 1 to 19% | pest or weed control at 0.0125 % strength [2, 5]: 1 to 19% | pest or weed control at 0.025 % strength [2, 6]: 1 to 19% | pest or weed control at 0.003125 % strength [2, 7]: 1 to 19% | pest or weed control at 0.0125 % strength [2, 9]: 1 to 19% | pest or weed control at 0.025 % strength [2, 10]: 1 to 19% | Average of % corrected affected ([2]; 0.003125 % w/v, 24 hours post application): E (A percentage control of from 1 to 19 is indicated by the letter E) | Average of % corrected affected ([2]; 0.003125 % w/v, 48 hours post application): E (A percentage control of from 1 to 19 is indicated by the letter E) | Average of % corrected affected ([2]; 0.0125 % w/v, 24 hours post application): E (A percentage control of from 1 to 19 is indicated by the letter E) | Average of % corrected affected [2, 14]: E (A percentage control of from 1 to 19 is indicated by the letter E) | Average of % corrected affected [2, 15]: E (A percentage control of from 1 to 19 is indicated by the letter E) | Average of % corrected affected [2, 16]: E (A percentage control of from 1 to 19 is indicated by the letter E) | Average of % corrected affected (aphids, Myzus persicae; 0.00625 % w/v, 24 hours post application): E (A percentage control of from 1 to 19 is indicated by the letter E) | Average of % corrected affected (aphids, Myzus persicae; [14]): E (A percentage control of from 1 to 19 is indicated by the letter E) | Average of % corrected affected (aphids, Myzus persicae; [15]): E (A percentage control of from 1 to 19 is indicated by the letter E) | Average of % corrected affected (aphids, Myzus persicae; [16]): E (A percentage control of from 1 to 19 is indicated by the letter E) | Average of % corrected affected (aphids, Myzus persicae; 0.05 % w/v, 24 hours post application): E (A percentage control of from 1 to 19 is indicated by the letter E) | Average of % corrected affected (aphids, Myzus persicae; 0.05 % w/v, 48 hours post application): E (A percentage control of from 1 to 19 is indicated by the letter E) | pest or weed control at 0.00625 % strength (aphids, Myzus persicae; [11]): 1 to 19% | pest or weed control at 0.025 % strength (aphids, Myzus persicae; [6]): 1 to 19% | pest or weed control at 0.05 % strength (aphids, Myzus persicae; [12]): 1 to 19% | pest or weed control at 0.0125 % strength (aphids, Myzus persicae; [9]): 1 to 19% | pest or weed control at 0.05 % strength (aphids, Myzus persicae; [13]): 1 to 19%

Source: patent US20160212997A1, “AGRICULTURAL CHEMICALS” (REDAG CROP PROTECTION LTD, priority 2013, published 2016)
